Reference: patent publication US6905865B1, “Detection of a gene, vatE, encoding an acetyltransferase inactivating streptogramin” (Institut Pasteur, priority 1999, dated 2005)

Key:
S. aureus RN4220 [pOX7] = test: MIC of pristinamycin IIA for S. aureus RN4220 carrying the shuttle vector pOX7; format: cell-based; details: Staphylococcus aureus; S. aureus recipient RN4220 with empty shuttle vector pOX7
Protocol: (§1) A DNA fragment of 858 nt containing vatE (nt 104 to nt 961, Accession No. AF153312) was amplified from pIP1798 and inserted between the EcoRI and SmaI sites of the shuttle vector, pOX7 (11). The resulting plasmid, pIP1801, introduced by electroporation in the S. aureus recipient, RN4220 (15), conferred resistance to pristinamycin IIA (MICs: 2 μg/ml for RN4220 [pOX7] and 8 μg/ml for RN4220 [pIP1801]).

[1] = tested on: S. aureus RN4220 [pIP1801]; test: MIC of pristinamycin IIA for S. aureus RN4220 carrying pIP1801 (vatE); format: cell-based; details: Staphylococcus aureus; S. aureus recipient RN4220 with pIP1801 (pOX7 carrying vatE), introduced by electroporation
Protocol: as §1

CC1=C\[C@@H](O)CC(=O)Cc2nc(co2)C(=O)N2CCC=C2C(=O)O[C@H](C(C)C)[C@H](C)/C=C/C(=O)NC\C=C\1 [pristinamycin IIA]
MIC (S. aureus RN4220 [pOX7]): 2 µg/mL
MIC [1]: 8 µg/mL
